Calls of active or inactive are those of the source.
Key:
[1] = biological target: Cyclin-dependent kinase 5 (Homo sapiens, UniProt Q00535); format: functional;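 further: CDK5 measured as one member of a kinase profiling panel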
[2] = biological target: Dual specificity tyrosine-phosphorylation-regulated kinase 1B (Homo sapiens, UniProt Q9Y463); experiment: Navigating the Kinome. Panel member name: DYRK1B; format: functional
[3] = biological target: T1, Histone-lysine N-methyltransferase NSD2 (Homo sapiens, UniProt O96028); format: biochemical
T1 sequence (O96028 whole entry): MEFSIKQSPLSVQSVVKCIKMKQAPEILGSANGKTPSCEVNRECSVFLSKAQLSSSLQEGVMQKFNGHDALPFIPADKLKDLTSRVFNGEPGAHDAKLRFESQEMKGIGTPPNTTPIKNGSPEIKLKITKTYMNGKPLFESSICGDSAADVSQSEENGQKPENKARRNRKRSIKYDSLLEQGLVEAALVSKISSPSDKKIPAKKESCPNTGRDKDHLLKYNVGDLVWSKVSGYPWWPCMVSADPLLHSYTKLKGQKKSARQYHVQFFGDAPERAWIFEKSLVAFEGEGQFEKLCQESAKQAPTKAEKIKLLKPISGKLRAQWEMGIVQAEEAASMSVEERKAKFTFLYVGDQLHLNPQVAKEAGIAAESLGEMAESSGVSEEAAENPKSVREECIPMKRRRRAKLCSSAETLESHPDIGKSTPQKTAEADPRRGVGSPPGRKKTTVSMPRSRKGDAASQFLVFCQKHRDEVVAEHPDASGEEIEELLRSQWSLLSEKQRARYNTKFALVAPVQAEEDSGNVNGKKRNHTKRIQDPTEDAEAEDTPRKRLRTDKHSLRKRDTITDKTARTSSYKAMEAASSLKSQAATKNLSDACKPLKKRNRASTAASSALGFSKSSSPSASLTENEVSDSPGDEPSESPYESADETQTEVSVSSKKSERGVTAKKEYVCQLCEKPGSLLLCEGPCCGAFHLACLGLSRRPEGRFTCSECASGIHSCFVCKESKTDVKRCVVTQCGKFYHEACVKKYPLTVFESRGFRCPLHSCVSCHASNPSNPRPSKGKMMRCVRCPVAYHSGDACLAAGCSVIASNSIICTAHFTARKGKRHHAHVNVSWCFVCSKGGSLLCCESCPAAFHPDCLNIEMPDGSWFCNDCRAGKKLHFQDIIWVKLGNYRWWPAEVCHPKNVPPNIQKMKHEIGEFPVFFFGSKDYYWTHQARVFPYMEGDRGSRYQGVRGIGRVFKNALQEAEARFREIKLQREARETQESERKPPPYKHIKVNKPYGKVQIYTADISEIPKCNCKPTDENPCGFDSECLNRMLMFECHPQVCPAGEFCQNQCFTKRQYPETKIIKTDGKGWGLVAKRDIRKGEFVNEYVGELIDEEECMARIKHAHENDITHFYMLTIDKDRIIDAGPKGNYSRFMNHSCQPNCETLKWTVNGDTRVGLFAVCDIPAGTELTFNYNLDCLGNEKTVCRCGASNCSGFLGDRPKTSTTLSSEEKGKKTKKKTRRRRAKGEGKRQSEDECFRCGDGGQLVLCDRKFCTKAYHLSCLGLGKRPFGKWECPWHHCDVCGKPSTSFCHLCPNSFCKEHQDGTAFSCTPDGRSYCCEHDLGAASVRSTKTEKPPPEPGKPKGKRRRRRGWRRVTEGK

[4] = biological target: T2, Tyrosyl-DNA phosphodiesterase 2 (Homo sapiens, UniProt O95551); experiment: potency against TDP2 phosphodiesterase activity – biochemical, epi absorbance, IC50, dose response (AID 743297)
T2 sequence (O95551 whole entry): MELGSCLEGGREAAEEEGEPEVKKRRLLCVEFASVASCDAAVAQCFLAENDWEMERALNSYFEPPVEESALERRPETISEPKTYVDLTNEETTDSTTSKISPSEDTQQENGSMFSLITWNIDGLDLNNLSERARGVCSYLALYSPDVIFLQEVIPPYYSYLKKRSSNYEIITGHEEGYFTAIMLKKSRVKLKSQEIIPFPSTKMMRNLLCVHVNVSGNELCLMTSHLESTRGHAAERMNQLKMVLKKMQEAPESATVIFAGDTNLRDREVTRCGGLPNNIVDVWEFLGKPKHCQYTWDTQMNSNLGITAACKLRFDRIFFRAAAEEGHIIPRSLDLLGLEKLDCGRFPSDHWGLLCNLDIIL

[5] = biological target: T3, Apoptotic protease-activating factor 1 (Homo sapiens, UniProt O14727); format: functional
T3 sequence (O14727 whole entry): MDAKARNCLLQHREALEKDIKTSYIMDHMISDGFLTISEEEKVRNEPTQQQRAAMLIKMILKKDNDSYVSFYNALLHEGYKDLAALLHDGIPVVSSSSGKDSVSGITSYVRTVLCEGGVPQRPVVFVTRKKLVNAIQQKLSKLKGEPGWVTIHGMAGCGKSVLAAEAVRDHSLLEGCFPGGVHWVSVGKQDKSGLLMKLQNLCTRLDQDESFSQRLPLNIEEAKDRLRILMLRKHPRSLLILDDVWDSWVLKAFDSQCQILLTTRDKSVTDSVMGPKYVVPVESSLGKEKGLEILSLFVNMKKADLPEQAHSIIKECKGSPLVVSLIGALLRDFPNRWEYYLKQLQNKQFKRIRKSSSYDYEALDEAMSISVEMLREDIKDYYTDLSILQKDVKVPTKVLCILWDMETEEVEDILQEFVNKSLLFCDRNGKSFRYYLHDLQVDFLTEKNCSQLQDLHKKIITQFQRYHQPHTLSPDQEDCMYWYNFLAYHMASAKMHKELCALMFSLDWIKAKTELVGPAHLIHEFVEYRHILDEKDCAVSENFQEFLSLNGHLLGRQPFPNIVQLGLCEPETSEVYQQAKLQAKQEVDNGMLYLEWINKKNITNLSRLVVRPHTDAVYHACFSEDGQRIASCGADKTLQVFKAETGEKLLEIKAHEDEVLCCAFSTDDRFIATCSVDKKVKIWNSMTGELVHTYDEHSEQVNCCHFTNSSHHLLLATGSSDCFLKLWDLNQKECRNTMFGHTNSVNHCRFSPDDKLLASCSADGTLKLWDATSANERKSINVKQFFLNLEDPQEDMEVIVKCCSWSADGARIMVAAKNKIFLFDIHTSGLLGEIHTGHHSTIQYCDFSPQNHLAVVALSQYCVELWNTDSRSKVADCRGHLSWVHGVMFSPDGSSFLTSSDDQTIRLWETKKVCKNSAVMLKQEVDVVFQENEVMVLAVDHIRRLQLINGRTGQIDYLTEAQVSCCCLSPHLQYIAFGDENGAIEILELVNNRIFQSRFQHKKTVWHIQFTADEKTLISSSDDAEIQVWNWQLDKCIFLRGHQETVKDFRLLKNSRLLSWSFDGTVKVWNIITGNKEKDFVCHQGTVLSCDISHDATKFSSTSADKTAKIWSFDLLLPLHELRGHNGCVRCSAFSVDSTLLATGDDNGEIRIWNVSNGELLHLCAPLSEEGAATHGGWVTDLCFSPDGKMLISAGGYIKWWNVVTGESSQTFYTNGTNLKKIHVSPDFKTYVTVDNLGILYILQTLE

Cyclin-dependent kinase 5, sequence (Q00535 whole entry): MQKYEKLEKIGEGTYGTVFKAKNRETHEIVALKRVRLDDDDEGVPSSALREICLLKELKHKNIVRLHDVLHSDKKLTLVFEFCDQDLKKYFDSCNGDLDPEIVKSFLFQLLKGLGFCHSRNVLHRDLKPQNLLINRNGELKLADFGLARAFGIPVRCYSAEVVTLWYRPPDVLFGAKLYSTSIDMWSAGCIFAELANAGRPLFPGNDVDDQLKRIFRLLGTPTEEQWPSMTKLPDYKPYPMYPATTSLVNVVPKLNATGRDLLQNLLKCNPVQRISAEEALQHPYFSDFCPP
Dual specificity tyrosine-phosphorylation-regulated kinase 1B, sequence (Q9Y463 whole entry): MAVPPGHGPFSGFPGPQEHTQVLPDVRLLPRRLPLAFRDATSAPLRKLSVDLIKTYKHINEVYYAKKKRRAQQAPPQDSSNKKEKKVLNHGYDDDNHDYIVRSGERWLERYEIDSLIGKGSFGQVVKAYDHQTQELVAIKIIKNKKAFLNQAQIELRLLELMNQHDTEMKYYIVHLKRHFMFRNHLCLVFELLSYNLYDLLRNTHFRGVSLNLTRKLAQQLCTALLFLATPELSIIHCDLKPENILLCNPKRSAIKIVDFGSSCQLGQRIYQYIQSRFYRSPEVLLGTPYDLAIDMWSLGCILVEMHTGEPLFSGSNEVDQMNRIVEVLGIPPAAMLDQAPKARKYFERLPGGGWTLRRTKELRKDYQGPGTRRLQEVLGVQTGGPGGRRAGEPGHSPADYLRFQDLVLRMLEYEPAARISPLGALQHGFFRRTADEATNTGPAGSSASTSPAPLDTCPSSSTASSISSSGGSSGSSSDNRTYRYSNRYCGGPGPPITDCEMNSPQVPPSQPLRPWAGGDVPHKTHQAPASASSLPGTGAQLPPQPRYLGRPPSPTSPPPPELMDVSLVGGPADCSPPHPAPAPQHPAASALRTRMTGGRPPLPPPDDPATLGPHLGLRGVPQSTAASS

Which Ki [1] does the source give for `Cc1ccc(-c2cc3nc(Br)cnc3[nH]2)cc1` here?
Its Ki is 7.94 nM (active).

And the Ki [2]?
Its Ki is > 2510 nM (inactive).

What does the source list for `CC(=O)N(C1=C(Cl)C(=O)c2ccccc2C1=O)c1ccc(C(=O)O)cc1`?
AC50 [3]: 3290 nM (active); IC50 [4]: 9400 nM (active); IC50 [5]: 2920 nM (active)

For `CC1(C)C=C2C(=NN(c3ccccc3)C(N)=C2C#N)CO1`, which AC50 [3] is on record?
Its AC50 is 5670 nM (active).

What about the IC50 [4] of the same molecule?
Its IC50 is 1270 nM (active).

What about the IC50 [5] of the same molecule?
Its IC50 is 1380 nM (active).
